Data taken from the NIST ThermoML archive (doi:10.1021/acs.jced.7b00335).
± gives the expanded uncertainty stated by the source.

Test: xn = mol fraction of the nth substance listed
Conditions: 100 kPa, Liquid; for viscosity: Concentric cylinders viscometry; for mass density: Vibrating tube method

O=Cc1ccccc1 [benzaldehyde] + CCCC(C)O
viscosity (293.15 K, x1 = 0.0809): 3.3 ± 0.13 mPa·s
viscosity (293.15 K, x1 = 0.1662): 2.75 ± 0.11 mPa·s
viscosity (293.15 K, x1 = 0.2441): 2.36 ± 0.1 mPa·s
viscosity (293.15 K, x1 = 0.3552): 1.95 ± 0.08 mPa·s
viscosity (293.15 K, x1 = 0.4418): 1.757 ± 0.071 mPa·s
viscosity (293.15 K, x1 = 0.5664): 1.62 ± 0.07 mPa·s
viscosity (293.15 K, x1 = 0.6565): 1.568 ± 0.064 mPa·s
viscosity (293.15 K, x1 = 0.7447): 1.537 ± 0.062 mPa·s
viscosity (293.15 K, x1 = 0.8528): 1.516 ± 0.062 mPa·s
viscosity (293.15 K, x1 = 0.9419): 1.51 ± 0.06 mPa·s
viscosity (293.15 K, x1 = 1): 1.52 ± 0.06 mPa·s
mass density (293.15 K, x1 = 0.0809): 825.2 ± 1 kg/m3
mass density (293.15 K, x1 = 0.1662): 841.4 ± 1 kg/m3
mass density (293.15 K, x1 = 0.2441): 858.3 ± 1 kg/m3
mass density (293.15 K, x1 = 0.3552): 882.5 ± 1 kg/m3
mass density (293.15 K, x1 = 0.4418): 903 ± 1 kg/m3
mass density (293.15 K, x1 = 0.5664): 933.2 ± 1 kg/m3
mass density (293.15 K, x1 = 0.6565): 956.4 ± 1 kg/m3
mass density (293.15 K, x1 = 0.7447): 980 ± 1 kg/m3
mass density (293.15 K, x1 = 0.8528): 1008.5 ± 1 kg/m3
mass density (293.15 K, x1 = 0.9419): 1031.8 ± 1 kg/m3
mass density (293.15 K, x1 = 1): 1046.3 ± 1 kg/m3
viscosity (298.15 K, x1 = 0.0809): 2.775 ± 0.11 mPa·s
viscosity (298.15 K, x1 = 0.1662): 2.35 ± 0.1 mPa·s
viscosity (298.15 K, x1 = 0.2441): 2.05 ± 0.08 mPa·s
viscosity (298.15 K, x1 = 0.3552): 1.731 ± 0.07 mPa·s
viscosity (298.15 K, x1 = 0.4418): 1.584 ± 0.064 mPa·s
viscosity (298.15 K, x1 = 0.5664): 1.458 ± 0.059 mPa·s
viscosity (298.15 K, x1 = 0.6565): 1.416 ± 0.058 mPa·s
viscosity (298.15 K, x1 = 0.7447): 1.395 ± 0.057 mPa·s
viscosity (298.15 K, x1 = 0.8528): 1.39 ± 0.06 mPa·s
viscosity (298.15 K, x1 = 0.9419): 1.395 ± 0.057 mPa·s
viscosity (298.15 K, x1 = 1): 1.41 ± 0.06 mPa·s
mass density (298.15 K, x1 = 0.0809): 821.1 ± 1 kg/m3
mass density (298.15 K, x1 = 0.1662): 837.2 ± 1 kg/m3
mass density (298.15 K, x1 = 0.2441): 854 ± 1 kg/m3
mass density (298.15 K, x1 = 0.3552): 878.2 ± 1 kg/m3
mass density (298.15 K, x1 = 0.4418): 898 ± 1 kg/m3
mass density (298.15 K, x1 = 0.5664): 928.2 ± 1 kg/m3
mass density (298.15 K, x1 = 0.6565): 951.2 ± 1 kg/m3
mass density (298.15 K, x1 = 0.7447): 975.4 ± 1 kg/m3
mass density (298.15 K, x1 = 0.8528): 1004.1 ± 1 kg/m3
mass density (298.15 K, x1 = 0.9419): 1027.4 ± 1 kg/m3
mass density (298.15 K, x1 = 1): 1041.7 ± 1 kg/m3
viscosity (303.15 K, x1 = 0.0809): 2.4 ± 0.1 mPa·s
viscosity (303.15 K, x1 = 0.1662): 2.06 ± 0.08 mPa·s
viscosity (303.15 K, x1 = 0.2441): 1.809 ± 0.073 mPa·s
viscosity (303.15 K, x1 = 0.3552): 1.55 ± 0.06 mPa·s
viscosity (303.15 K, x1 = 0.4418): 1.411 ± 0.057 mPa·s
viscosity (303.15 K, x1 = 0.5664): 1.301 ± 0.053 mPa·s
viscosity (303.15 K, x1 = 0.6565): 1.259 ± 0.051 mPa·s
viscosity (303.15 K, x1 = 0.7447): 1.25 ± 0.05 mPa·s
viscosity (303.15 K, x1 = 0.8528): 1.259 ± 0.051 mPa·s
viscosity (303.15 K, x1 = 0.9419): 1.28 ± 0.05 mPa·s
viscosity (303.15 K, x1 = 1): 1.31 ± 0.05 mPa·s
mass density (303.15 K, x1 = 0.0809): 817 ± 1 kg/m3
mass density (303.15 K, x1 = 0.1662): 833 ± 1 kg/m3
mass density (303.15 K, x1 = 0.2441): 849.7 ± 1 kg/m3
mass density (303.15 K, x1 = 0.3552): 873.9 ± 1 kg/m3
mass density (303.15 K, x1 = 0.4418): 894.4 ± 1 kg/m3
mass density (303.15 K, x1 = 0.5664): 923.8 ± 1 kg/m3
mass density (303.15 K, x1 = 0.6565): 946.9 ± 1 kg/m3
mass density (303.15 K, x1 = 0.7447): 971 ± 1 kg/m3
mass density (303.15 K, x1 = 0.8528): 1000 ± 1 kg/m3
mass density (303.15 K, x1 = 0.9419): 1023.1 ± 1 kg/m3
mass density (303.15 K, x1 = 1): 1037.1 ± 1 kg/m3
viscosity (308.15 K, x1 = 0.0809): 2.035 ± 0.083 mPa·s
viscosity (308.15 K, x1 = 0.1662): 1.78 ± 0.07 mPa·s
viscosity (308.15 K, x1 = 0.2441): 1.584 ± 0.064 mPa·s
viscosity (308.15 K, x1 = 0.3552): 1.369 ± 0.056 mPa·s
viscosity (308.15 K, x1 = 0.4418): 1.25 ± 0.05 mPa·s
viscosity (308.15 K, x1 = 0.5664): 1.159 ± 0.047 mPa·s
viscosity (308.15 K, x1 = 0.6565): 1.128 ± 0.046 mPa·s
viscosity (308.15 K, x1 = 0.7447): 1.117 ± 0.046 mPa·s
viscosity (308.15 K, x1 = 0.8528): 1.138 ± 0.046 mPa·s
viscosity (308.15 K, x1 = 0.9419): 1.175 ± 0.048 mPa·s
viscosity (308.15 K, x1 = 1): 1.22 ± 0.05 mPa·s
